Results: publication PMC9814792 (Communications Chemistry, 2022)
pIC50: −log10 of the molar value.

Tests used:
CT26 allografts = test: In vivo anticancer activity, CT26 allografts; set-up: species or system BALB/c mice; conditions: for tumor doubling time extended: CT26 allografts, equimolar doses; for tumor doubling time extended / maximal tumor growth inhibition: twice a week for two weeks; for maximal tumor growth inhibition: day 11, CT26 allografts, equimolar to 9 mg/kg oxaliplatin i.v.; for tumor volumes as compared to solvent controls: first two weeks of treatment
Method: (§1) Eight-to nine-week-old female BALB/c mice bred in-house (originally Janvier) were kept in pathogen-free conditions and controlled environment with 12 h light-dark cycle. CT26 cells (5 × 10^5 in 50 µL serum-free RPMI medium) were injected subcutaneously (s.c.) into the right flank of the animals. […] Tumor growth was evaluated by daily recording of tumor size by caliper measurement. […] The reasons were primarily either enhanced tumor size or ulceration. For drug distribution (digestion and ICP-MS measurement details see below), histological and GSH determination experiments, mice were treated twice during one week and sacrificed 24 h after the last drug dosing. The animal experiments were performed according to the regulations of the Ethics Committee for the Care and Use of Laboratory Animals at the Medical University Vienna (proposal number BMBWF-V/3b 2020-0.380.502).

[1] = Tissue/organ platinum distribution in CT26 allograft mice; format: in vivo, BALB/c mice; conditions: two i.v. doses in one week, 24 h after second dosing
Method: (§2) Eight-to nine-week-old female BALB/c mice bred in-house (originally Janvier) were kept in pathogen-free conditions and controlled environment with 12 h light-dark cycle. CT26 cells (5 × 10^5 in 50 µL serum-free RPMI medium) were injected subcutaneously (s.c.) into the right flank of the animals. […] Tumor growth was evaluated by daily recording of tumor size by caliper measurement. […] For drug distribution (digestion and ICP-MS measurement details see below), histological and GSH determination experiments, mice were treated twice during one week and sacrificed 24 h after the last drug dosing. The animal experiments were performed according to the regulations of the Ethics Committee for the Care and Use of Laboratory Animals at the Medical University Vienna (proposal number BMBWF-V/3b 2020-0.380.502).

[2] = test system: kidney, lung, liver sections; test: pH2AX DNA damage staining in healthy organs; format: in vivo, BALB/c mice; conditions: lung and kidney sections
Method: as §1
(§3) Formalin-fixed, paraffin-embedded tissue sections were prepared from tumors and animal organs (animal experiment details see above) and H&E stains performed by standard methods. Mouse-specific Ki-67 rabbit mAb (#12202) and mouse-specific pH2AX rabbit mAb (#9718) were purchased from Cell Signaling Technology (Beverly, MA, USA) and used following the manufacturer’s recommendations in a dilution of 1:200 (Ki-67) and 1:500 (pH2AX) for immunohistochemical staining.

CT26 tumor tissue = test: Tumor tissue markers (mitoses, Ki-67, pH2AX, GSH) after one week of therapy; format: in vivo, BALB/c mice; conditions: for number of mitotic tumor cells as compared to solvent controls: H&E-stained sections
Method: as §2, §3
(§4) GSH levels in HCT116 and HCT116/OxR cells (7.5 × 10^4 cells per well in 96-well plates, in triplicate), or in CT26 tumor tissues (25–50 mg/sample) were determined using the luminescence-based detection system GSH/GSSG-Glo^TM assay (Promega, Madison, WI) following the manufacturer’s recommendations. Quantifications are based on the comparison with a GSH standard curve delivered in the assay and normalized to the total protein content of the samples determined by the Micro BCA^TM protein assay kit (Thermo Scientific).

[3] = Serum pharmacokinetics (platinum by ICP-MS) after single dose; format: in vivo, BALB/c mice; conditions: for serum half-life (fast), two-phase decay model / serum half-life (slow), two-phase decay model / serum half-life, one-phase decay model: serum platinum
Method: Blood was drawn after 5 min, 30 min, 6 h, 24 h, 72 h, 1 and 2 weeks from the facial vein as published. Serum was isolated by centrifugation at 900 g for 10 min for two times and stored at –80 °C. In addition, blood samples and tissues from the allograft experiment after the two-weeks therapy experiment were analyzed. Digestion of tissue (approx. 10–30 mg gravimetrically weighted) was performed with 2 mL of approx. 20% nitric acid and 100 µL H2O2 using an open vessel graphite digestion system (coated graphite heating plate, coated sample holder-top for 25 mL vials, perfluoroalkoxy (PFA) vials and PFA lids; Labter, ODLAB; AHF Analysentechnik AG; Germany). HNO3 (67–69%, suprapur for trace metal analysis, NORMATOM; VWR international, Austria) and conc. H2O2 suprapur (Merck, 30%) were used without further purification. Ultrapure water (18.2 MΩ cm, Milli-Q Advantage, Darmstadt, Germany) was used for all dilutions for ICP-MS measurements. Platinum and rhenium standards for ICP-MS measurements were derived from CPI International (Amsterdam, The Netherlands). The platinum content was determined using an Agilent 7800 ICP-MS instrument. The ICP-MS Agilent 7800® (Agilent Technologies, Tokyo, Japan) was equipped with an Agilent SPS 4 autosampler (Agilent Technologies, Tokyo, Japan) and a MicroMist nebulizer at a sample uptake rate of approx. 0.2 mL/min. The Agilent MassHunter® software package (Workstation Software, version C.01.04, Build 544.17, Patch 3, 2018) was used for data processing. The instrument was tuned on a daily basis to achieve maximum sensitivity. In case of the single-dose experiment, serum area-under the curve (AUC) and serum half-life (one-phase and two-phase decay models) were determined using the respective non-linear fit regression models of GraphPad Prism software.

albumin = target: T1, albumin (Bos taurus, UniProt P02769); test: Albumin binding in fetal calf serum by SEC-ICP-MS; format: in vitro ADME; conditions: fetal calf serum 37 °C, 100 μM
T1 construct: tissue Sigma-Aldrich; host or cells: fetal calf serum
T1 sequence (P02769 25-607): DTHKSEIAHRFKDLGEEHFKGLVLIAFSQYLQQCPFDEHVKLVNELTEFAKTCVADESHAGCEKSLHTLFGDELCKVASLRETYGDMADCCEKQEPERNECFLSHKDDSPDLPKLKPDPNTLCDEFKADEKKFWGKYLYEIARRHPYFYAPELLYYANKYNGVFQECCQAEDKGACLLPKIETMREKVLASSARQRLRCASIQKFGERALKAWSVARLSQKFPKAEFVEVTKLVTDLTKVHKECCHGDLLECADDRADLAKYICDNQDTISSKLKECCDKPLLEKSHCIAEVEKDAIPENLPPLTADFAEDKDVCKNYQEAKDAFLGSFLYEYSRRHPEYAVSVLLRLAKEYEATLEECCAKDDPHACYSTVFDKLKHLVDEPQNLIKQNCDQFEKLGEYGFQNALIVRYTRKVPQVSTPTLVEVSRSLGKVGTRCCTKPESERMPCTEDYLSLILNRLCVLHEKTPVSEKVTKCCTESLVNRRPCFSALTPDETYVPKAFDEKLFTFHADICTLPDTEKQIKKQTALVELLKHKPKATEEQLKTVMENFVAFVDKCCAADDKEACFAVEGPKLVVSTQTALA
Method: Fetal calf serum was purchased from Sigma-Aldrich and buffered with 150 mM phosphate buffer (pH 7.4) to guarantee a stable pH. The platinum(IV) complexes were dissolved in 150 mM phosphate buffer (pH 7.4) to 1 mM and diluted 1:10 in serum to obtain a final concentration of 100 μM. The samples were then incubated in the autosampler at 37 °C for 24 h and analyzed at 0 h, 1 h, 4 h, and 24 h. Between each sample, a pure water blank was measured. For SEC-ICP-MS measurements, an Agilent 1260 Infinity system coupled to an Agilent 7800 ICP-MS equipped with a dynamic reaction cell was used. Oxygen (purity 5.5, Messer AustriaGmbH, Gumpoldskirchen, Austria) was used as reaction gas at 30% and 0.9 L/min flow.

[4] = test system: HCT116 and HCT116/OxR cells; test: Cellular GSH content (GSH/GSSG-Glo); format: cell-based, human; conditions: 24 h exposure, single agent
Method: as §4

BEC endothelial cells = test: 72 h cell viability (MTT) assay; format: cell-based, human
Method: (§5) Cells were seeded (3–4 ×10^3 cells/well) in 96-well plates in 100 µL and after 24 h recovery treated with 100 µL of compounds at the indicated concentrations in triplicates. After 72 h drug exposure cell viability was determined by 3-(4,5-dimethylthiazol-2-yl)-2,5-diphenyltetrazolium bromide (MTT)-vitality assay (EZ4U, Biomedica, Vienna, Austria) following the manufacturer’s recommendations, as published. Absorbance was measured at 450 nm (at 620 nm as reference) using the multimode plate reader Tecan Infinite 200 Pro (Zurich, Switzerland). Cytotoxicity was expressed as IC50 values calculated from full dose-response curves using the 4 parameter nonlinear regression model of GraphPad Prism 8 software (La Jolla, CA, USA).

HCT116 cells = test: 72 h cell viability (MTT) assay; format: cell-based, human; conditions: HCT116, 72 h continuous exposure; read-out: IC50 value (95% confidence interval)
Method: as §5

HaCat keratinocytes = test: 72 h cell viability (MTT) assay; format: cell-based, human
Method: as §5

Tolerability in mice = format: in vivo, BALB/c mice
Method: as §1

HCT116/OxR cells = test: 72 h cell viability (MTT) assay; format: cell-based, human; conditions: HCT116/OxR, 72 h continuous exposure; read-out: IC50 value (95% confidence interval)
Method: Absorbance was measured at 450 nm (at 620 nm as reference) using the multimode plate reader Tecan Infinite 200 Pro (Zurich, Switzerland). Cytotoxicity was expressed as IC50 values calculated from full dose-response curves using the 4 parameter nonlinear regression model of GraphPad Prism 8 software (La Jolla, CA, USA).

[5] = test system: HCT116 and HCT116/OxR cells; test: In vitro platinum cell uptake by ICP-MS; format: cell-based, human; conditions: 3 h exposure
Method: Cells were seeded at 1.5 ×10^5 cells/well in six-well plates in 1.5 mL and after 24 h recovery treated with 500 µL of compounds at the indicated concentrations in triplicates. After 3 h drug exposure, cells were detached, washed twice with phosphate-buffered saline (PBS), dried at RT for 15 min and lysed in 100 µL HNO3 (69%, Rotipuran Supra, Carl Roth, Karlsruhe, Germany) for 1 h at RT. The lysate was added to fresh tubes containing 200 µL ddH2O. ICP-MS measurements were performed with an Agilent 8800 ICP-MS/MS instrument (Agilent Technologies, Tokyo, Japan). The sample introduction system consisted of a MicroMist nebulizer (200 μL min^−1 nominal sample uptake) and a quartz double-pass spray chamber. The instrument was tuned on a daily basis in order to achieve maximum sensitivity, low oxide formation, and low doubly charged ratios. Platinum was monitored in no gas mode with an integration time of 0.3 s. The flow injection measurements were performed with a bioinert HPLC 1260 (Agilent Technologies, Waldbronn, Germany), which was directly connected to the nebulizer of the ICP-MS/MS instrument with a PEEK tubing. The following chromatographic conditions were used: injection volume: 10 µL; flow rate: 0.30 mL min^-1; isocratic elution; CH3COONH4 (50 mM, pH = 6.8) aqueous solution was employed as mobile phase. The data were recorded and evaluated with the Agilent MassHunter Chromatography software package, MassHunter 4.6., 2019.

[6] = set-up: method as in PMID 7895599; conditions: patients; cited from earlier work
A2780/Cis cells = test: 72 h cell viability (MTT) assay; format: cell-based, human
Method: as §5

A2780 cells = test: 72 h cell viability (MTT) assay; format: cell-based, human; conditions: A2780, 72 h continuous exposure; read-out: IC50 value (95% confidence interval)
Method: as §5

CCCCS(=N)(=O)CCC(NC(=O)[O][Pt]1([O]C(=O)NCCCCCN2C(=O)C=CC2=O)[O]C(=O)C(=O)[O]1)C(=O)O.NC1CCCCC1N (mixture of isomers) [BSO-OxMal, (OC-6-24)-((1 S)-3-(Butylsulfonimidoyl)-1-carboxypropyl)carbamato(1 R,2 R)-1,2-cyclohexanediamino(5-(2,5-dioxo-2,5-dihydro-1H-pyrrol-1-yl)pentyl)carbamatooxalatoplatinum(IV)]
tumor doubling time extended (CT26 allografts): 1.8 fold
overall survival (CT26 allografts; Kaplan Meier, Mantel-Cox test): significantly increased overall survival
maximal tumor growth inhibition (CT26 allografts): 61.2%
tumor volumes as compared to solvent controls (CT26 allografts): significantly reduced tumor volumes
increased serum platinum levels in comparison to oxaliplatin [1]: more than 20 fold
DNA damage (pH2AX) in healthy organs [2]: avoids renal DNA damage
number of mitotic tumor cells as compared to solvent controls (CT26 tumor tissue; one week of therapy): significantly reduced
DNA damage (pH2AX) in tumor (CT26 tumor tissue; non-necrotic parts of the tumor): distinctly enhanced DNA damage as compared to oxaliplatin
Ki-67 antiproliferative effect (CT26 tumor tissue; non-necrotic tumor regions, one week of therapy): significantly stronger antiproliferative effect
GSH content in malignant tissue (CT26 tumor tissue; one week of therapy): significantly stronger effect
serum half-life higher as compared to oxaliplatin ([3]; depending on the regression model used): more than 10 fold
serum half-life (fast), two-phase decay model ([3]; single equimolar dose, mice): 1.217 h
serum half-life (slow), two-phase decay model ([3]; single equimolar dose, mice): 22.28 h
serum half-life, one-phase decay model ([3]; single equimolar dose, mice): 3.968 h
increase of AUC (total area) as compared to oxaliplatin ([3]; single equimolar dose, mice): > 12 fold
bound to albumin fraction (albumin; t 0 h): 76%
free (low molecular weight fraction) (albumin; t 0 h): 24%
bound to albumin fraction (albumin; t 1 h): 100%
free (low molecular weight fraction) (albumin; t 1 h): 0%
bound to albumin fraction (albumin; t 4 h): 100%
free (low molecular weight fraction) (albumin; t 4 h): 0%
bound to albumin fraction (albumin; t 24 h): 97%
free (low molecular weight fraction) (albumin; t 24 h): 3%

O=C1[O][Pt]2([NH][C@@H]3CCCC[C@H]3[NH]2)[O]C1=O [oxaliplatin, reference compound]
tumor doubling time extended (CT26 allografts): 1.3 fold
maximal tumor growth inhibition (CT26 allografts): 51.3%
tumor volumes as compared to solvent controls (CT26 allografts): significantly reduced tumor volumes
impact on cellular GSH content [4]: did not alter the GSH content
pIC50 (BEC endothelial cells): 4.99
pIC50 (HCT116 cells): 6.24
pIC50 (HaCat keratinocytes): 5.47
maximum tolerated dose (MTD) (Tolerability in mice): 9 mg/kg
DNA damage (pH2AX) in healthy organs [2]: induced pH2AX-positive cells in both lung and kidney samples
number of mitotic tumor cells as compared to solvent controls (CT26 tumor tissue; one week of therapy): significantly reduced
GSH content in malignant tissue (CT26 tumor tissue; one week of therapy): distinctly reduced the content of GSH
serum half-life (fast), two-phase decay model ([3]; single equimolar dose, mice): 0.1528 h
serum half-life (slow), two-phase decay model ([3]; single equimolar dose, mice): 15.38 h
serum half-life, one-phase decay model ([3]; single equimolar dose, mice): 0.2624 h
pIC50 (HCT116/OxR cells): < 5.00
intracellular accumulation in HCT116/OxR as compared to parental HCT116 [5]: significantly reduced

CCCCS(=N)(=O)CC[C@H](N)C(=O)O (stereo partly drawn) [BSO, L-Buthionine-S,R-sulfoximine]
plasma half-life [6]: < 2 h

N.N.[Cl][Pt][Cl] [cisplatin, reference compound]
pIC50 (A2780/Cis cells; A2780/Cis, 72 h continuous exposure, read-out: IC50 value (95% confidence interval)): 5.11
resistance factor (A2780/Cis cells; IC50 A2780/Cis divided by IC50 A2780): 4.1
pIC50 (A2780 cells): 5.72
